Legend:
[1] = target: T1, rat URAT1 r-N35S/Y365F/M481I (Rattus norvegicus, UniProt Q3ZAV1, M481I/N35S/Y365F); assay: URAT1 activity assay, r-N35S/Y365F/M481I; format: cell-based
T1 construct: expressed in transfected cells; host or cells: HEK-293T
T1 sequence (Q3ZAV1 1-553 N35S/Y365F/M481I): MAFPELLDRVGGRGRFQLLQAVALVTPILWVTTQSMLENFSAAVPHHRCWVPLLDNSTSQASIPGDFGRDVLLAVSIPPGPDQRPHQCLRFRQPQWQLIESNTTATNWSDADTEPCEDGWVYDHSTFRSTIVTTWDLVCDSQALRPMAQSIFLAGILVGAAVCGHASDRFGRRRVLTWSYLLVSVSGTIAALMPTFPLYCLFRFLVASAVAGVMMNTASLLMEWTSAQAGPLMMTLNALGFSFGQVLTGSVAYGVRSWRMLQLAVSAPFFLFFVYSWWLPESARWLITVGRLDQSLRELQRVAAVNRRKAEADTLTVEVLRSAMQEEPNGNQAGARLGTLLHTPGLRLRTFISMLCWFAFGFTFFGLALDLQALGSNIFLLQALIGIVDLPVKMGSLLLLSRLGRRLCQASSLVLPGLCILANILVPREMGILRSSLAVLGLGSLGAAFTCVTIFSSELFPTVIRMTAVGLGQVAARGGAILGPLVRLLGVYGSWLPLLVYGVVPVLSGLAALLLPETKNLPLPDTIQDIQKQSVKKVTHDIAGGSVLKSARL
From the text: (§1) Human URAT1 (GenBank BC053348.1, Homo sapiens SLC22A12), rat URAT1 (NCBI NM_001034943.1, Rattus norvegicus Slc22a12) and human OAT4 (NCBI NM_018484.2, Homo sapiens SLC22A11) genes were purchased from Origene Technologies, Inc. and subcloned into pCMV6/neo using NotI. Where indicated, controls transfections used pCMV6/neo. Mutants were produced by site-directed mutagenesis using the QuikChange Lightning Multi Site-Directed Mutagenesis Kit (Agilent Technologies). […] Mutagenic primer sequences are provided in ref. [15] and mutagenic primer sequences for previously unreported mutants shown in Supplementary Table 1. All constructs used in this study were untagged. Human OAT1 was purchased from Fisher Scientific (catalog # MHS1010–7508183 in pSPORT6, NCBI NM_153276.2, Homo sapiens SLC22A6).
(§2) HEK-293T cells were maintained in DMEM/high glucose/L-glutamine/HEPES supplemented with 1 mM sodium pyruvate (Life Technologies) and 10% FBS (PAA Laboratories) at 37 °C in 5% CO2. To express URAT1, OAT4 or OAT1, plasmids were reverse transfected into HEK-293T cells. DNA (10 µg) was mixed with 30 µl of DreamFect Gold (Boca Scientific) in 2 ml OptiMem (Life Technologies). After 20 minutes, 18 ml of media containing 2 × 10^7 cells in suspension was added and mixed, and 200 µl per well were plated onto white clear-bottomed poly-D-lysine coated 96-well plates (BD Biosciences). The cells were assayed the following day.
URAT1 and OAT4 activity assays were performed in assay buffer consisting of 25 mM MES pH 5.5 (from a 1 M MES solution [Sigma] adjusted to pH 5.5 with sodium hydroxide), 125 mM sodium gluconate, 4.8 mM potassium gluconate, 1.2 mM monobasic potassium phosphate, 1.2 mM magnesium sulfate, 1.3 mM calcium gluconate and 5.6 mM glucose. URAT1 inhibitors were serially diluted into assay buffer and added to the cells for 5 minutes prior to addition of substrate. URAT1-expressing cells were incubated with 100 µM ^14C-uric acid for 10 minutes and OAT4-expressing cells were incubated with 20 µM carboxyfluorescein (Life Technologies, Inc.) for 5 minutes. […] Each treatment was measured in triplicate.

human URAT1 h-R477K = target: T2, human URAT1 h-R477K (Homo sapiens, UniProt Q96S37, R477K); assay: URAT1 activity assay, h-R477K; format: cell-based
T2 construct: expressed in transfected cells; host or cells: HEK-293T
T2 sequence (Q96S37 1-553 R477K): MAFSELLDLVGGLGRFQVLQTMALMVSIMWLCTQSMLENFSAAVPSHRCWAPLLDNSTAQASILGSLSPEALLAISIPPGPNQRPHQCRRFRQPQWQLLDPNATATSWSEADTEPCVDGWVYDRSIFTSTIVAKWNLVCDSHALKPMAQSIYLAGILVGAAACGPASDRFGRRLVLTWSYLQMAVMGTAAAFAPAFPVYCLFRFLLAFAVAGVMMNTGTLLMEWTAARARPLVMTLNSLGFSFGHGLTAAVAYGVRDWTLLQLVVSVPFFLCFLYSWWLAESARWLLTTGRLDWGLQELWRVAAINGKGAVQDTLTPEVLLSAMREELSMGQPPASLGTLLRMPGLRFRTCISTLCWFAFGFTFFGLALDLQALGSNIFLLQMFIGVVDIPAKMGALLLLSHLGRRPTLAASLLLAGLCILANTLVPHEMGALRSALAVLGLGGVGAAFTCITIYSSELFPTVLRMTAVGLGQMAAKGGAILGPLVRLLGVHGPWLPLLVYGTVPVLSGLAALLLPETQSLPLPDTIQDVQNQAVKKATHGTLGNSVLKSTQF
From the text: as §1, §2
(§3) URAT1 and OAT4 activity assays were performed in assay buffer consisting of 25 mM MES pH 5.5 (from a 1 M MES solution [Sigma] adjusted to pH 5.5 with sodium hydroxide), 125 mM sodium gluconate, 4.8 mM potassium gluconate, 1.2 mM monobasic potassium phosphate, 1.2 mM magnesium sulfate, 1.3 mM calcium gluconate and 5.6 mM glucose. URAT1 inhibitors were serially diluted into assay buffer and added to the cells for 5 minutes prior to addition of substrate. URAT1-expressing cells were incubated with 100 µM ^14C-uric acid for 10 minutes and OAT4-expressing cells were incubated with 20 µM carboxyfluorescein (Life Technologies, Inc.) for 5 minutes. Cells were then washed three times in 25 mM MES pH 5.5/125 mM sodium gluconate, and solubilized in Ultima Gold (Perkin Elmer) prior to liquid scintillation counting. Each treatment was measured in triplicate.

rat URAT1 r-V31L = rat URAT1 r-V31L (Rattus norvegicus, UniProt Q3ZAV1, V31L); assay: cell-based
Chain of rat URAT1 r-V31L (Q3ZAV1 whole entry V31L): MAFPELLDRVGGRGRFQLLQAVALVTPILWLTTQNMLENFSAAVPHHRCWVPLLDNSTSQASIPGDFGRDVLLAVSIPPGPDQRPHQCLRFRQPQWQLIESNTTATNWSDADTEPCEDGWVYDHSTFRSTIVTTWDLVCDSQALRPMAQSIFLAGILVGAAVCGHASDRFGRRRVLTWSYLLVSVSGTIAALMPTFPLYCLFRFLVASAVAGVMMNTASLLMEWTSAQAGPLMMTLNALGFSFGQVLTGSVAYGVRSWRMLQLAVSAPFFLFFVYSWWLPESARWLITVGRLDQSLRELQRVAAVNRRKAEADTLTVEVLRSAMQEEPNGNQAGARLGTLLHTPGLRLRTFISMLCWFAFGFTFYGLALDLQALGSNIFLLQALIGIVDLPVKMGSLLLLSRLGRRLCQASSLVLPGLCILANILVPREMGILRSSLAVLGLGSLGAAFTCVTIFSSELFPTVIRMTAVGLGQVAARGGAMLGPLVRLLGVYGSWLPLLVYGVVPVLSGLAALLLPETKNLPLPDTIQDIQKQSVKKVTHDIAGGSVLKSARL
From the text: as §1, §2, §3

rat URAT1 r-A21T = rat URAT1 r-A21T (Rattus norvegicus, UniProt Q3ZAV1, A21T); assay: cell-based
Chain of rat URAT1 r-A21T (Q3ZAV1 whole entry A21T): as the sequence (Q3ZAV1 whole entry V31L) above, with A21T, L31V counted along it
From the text: as §1, §2, §3

rat URAT1 r-V22M = rat URAT1 r-V22M (Rattus norvegicus, UniProt Q3ZAV1, V22M); assay: cell-based
Chain of rat URAT1 r-V22M (Q3ZAV1 whole entry V22M): as the sequence (Q3ZAV1 whole entry V31L) above, with V22M, L31V counted along it
From the text: as §1, §2, §3

rat URAT1 r-L29M = rat URAT1 r-L29M (Rattus norvegicus, UniProt Q3ZAV1, L29M); assay: cell-based
Chain of rat URAT1 r-L29M (Q3ZAV1 whole entry L29M): as the sequence (Q3ZAV1 whole entry V31L) above, with L29M, L31V counted along it
From the text: as §1, §2, §3

rat URAT1 r-N35S/Y365F = rat URAT1 r-N35S/Y365F (Rattus norvegicus, UniProt Q3ZAV1, N35S/Y365F); assay: cell-based
Chain of rat URAT1 r-N35S/Y365F (Q3ZAV1 whole entry N35S/Y365F): as the sequence (Q3ZAV1 whole entry V31L) above, with L31V, N35S, Y365F counted along it
From the text: as §1, §2, §3

rat URAT1 r-L18V = rat URAT1 r-L18V (Rattus norvegicus, UniProt Q3ZAV1, L18V); assay: cell-based
Chain of rat URAT1 r-L18V (Q3ZAV1 whole entry L18V): as the sequence (Q3ZAV1 whole entry V31L) above, with L18V, L31V counted along it
From the text: as §1, §2, §3

human URAT1 h-V26T = target: T3, human URAT1 h-V26T (Homo sapiens, UniProt Q96S37, V26T); assay: URAT1 activity assay, h-V26T; format: cell-based; conditions: TM1 point mutant, read-out: Verinurad affinity (IC50)
T3 construct: expressed in transfected cells; host or cells: HEK-293T
T3 sequence (Q96S37 whole entry V26T): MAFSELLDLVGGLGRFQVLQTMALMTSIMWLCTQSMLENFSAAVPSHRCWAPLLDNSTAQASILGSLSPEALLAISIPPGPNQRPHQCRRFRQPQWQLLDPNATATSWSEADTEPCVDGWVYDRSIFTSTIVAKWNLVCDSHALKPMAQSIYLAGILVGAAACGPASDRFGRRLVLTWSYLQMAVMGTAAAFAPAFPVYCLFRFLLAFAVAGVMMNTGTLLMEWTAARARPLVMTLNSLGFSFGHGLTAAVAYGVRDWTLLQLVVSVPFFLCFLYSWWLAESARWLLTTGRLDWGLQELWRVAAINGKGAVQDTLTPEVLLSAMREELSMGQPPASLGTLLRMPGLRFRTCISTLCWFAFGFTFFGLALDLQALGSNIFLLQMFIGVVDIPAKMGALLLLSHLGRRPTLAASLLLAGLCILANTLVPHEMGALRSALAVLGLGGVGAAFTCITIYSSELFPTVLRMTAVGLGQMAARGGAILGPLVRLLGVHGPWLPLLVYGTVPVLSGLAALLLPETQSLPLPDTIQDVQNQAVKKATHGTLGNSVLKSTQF
From the text: as §1
(§4) HEK-293T cells were maintained in DMEM/high glucose/L-glutamine/HEPES supplemented with 1 mM sodium pyruvate (Life Technologies) and 10% FBS (PAA Laboratories) at 37 °C in 5% CO2. […]
(§5) URAT1 and OAT4 activity assays were performed in assay buffer consisting of 25 mM MES pH 5.5 (from a 1 M MES solution [Sigma] adjusted to pH 5.5 with sodium hydroxide), 125 mM sodium gluconate, 4.8 mM potassium gluconate, 1.2 mM monobasic potassium phosphate, 1.2 mM magnesium sulfate, 1.3 mM calcium gluconate and 5.6 mM glucose. […] Each treatment was measured in triplicate.

healthy human volunteers = tested on: healthy human volunteers; parameters: method as in PMID 28744099; conditions: humans; cited from earlier work
human URAT1 h-T21A = target: T4, human URAT1 h-T21A (Homo sapiens, UniProt Q96S37, T21A); assay: URAT1 activity assay, h-T21A; format: cell-based; conditions: TM1 point mutant, read-out: Verinurad affinity (IC50)
T4 construct: expressed in transfected cells; host or cells: HEK-293T
T4 sequence (Q96S37 whole entry T21A): as the sequence (Q96S37 whole entry V26T) above, with T21A, T26V counted along it
From the text: as §1, §4, §5

## CC(C)(Sc1ccncc1-c1ccc(C#N)c2ccccc12)C(=O)O [Verinurad, 2-((3-(4-cyanonaphthalen-1-yl)pyrindin-4-yl)thio)-2-methylpropanoic acid]
[1]; r-N35S/Y365F/M481I
  fold higher affinity compared to rat URAT1: ~300 fold
  fold lower affinity compared to human URAT1: 6 fold
[1]; r-N35S/Y365F/M481I triple point mutant
  IC50: 0.14 µM
Human URAT1 h-R477K; h-R477K
  fold reduced affinity compared to human URAT1: 9 fold
Human URAT1 h-R477K; h-R477K binding site point mutant
  IC50: 0.23 µM
Rat URAT1 r-V31L
  IC50: 29 ± 3.2 µM
Rat URAT1 r-A21T
  IC50: 36 ± 5.2 µM
Rat URAT1 r-V22M
  IC50: 43 ± 2.5 µM
Rat URAT1 r-L29M
  IC50: 29 ± 3.3 µM
Rat URAT1 r-N35S/Y365F
  IC50: 0.47 µM
Rat URAT1 r-L18V
  IC50: 40 ± 6.1 µM
Human URAT1 h-V26T
  IC50: 0.014 ± 0.0015 µM
Healthy human volunteers
  dose that significantly lowers sUA levels: ≥ 5 mg
Human URAT1 h-T21A
  IC50: 0.026 ± 0.012 µM

Reference: article PMC5429603, “Discovery and characterization of verinurad, a potent and specific inhibitor of URAT1 for the treatment of hyperuricemia and gout” (Scientific Reports, 2017)
